Results taken from US20160120979A1, “METHOD OF APPLYING A COMPOSITION AND PHARMACEUTICAL COMPOSITION WITH A REGIMEN OF ADMINISTERING IT” (priority 2013, published 2016).
In brackets after ≈: the same amount, converted by molar mass. Read-outs that look alike come from different tables or passages of the source.

Tests used:
[1] = tested on: Staphylococcus aureus MU500; assay: Experiment 12: replication on antibiotic agar after pulsed 400 nm irradiation; type: cell-based; settings: 24 hours incubation; for E: Staphylococcus aureus MU500 (no irradiation), replication: antibiotic 10 mg/l in MH agar; for F: Staphylococcus aureus MU500 (irradiation), replication: antibiotic 10 mg/l, 400 nm LED pulses 0.02 ms, 1 kHz, 10 minutes
Procedure: (§1) 15′000′000 multi-resistant bacteriae (0.050 ml of a McFarland of 1) were put on 40 mm diameter petri dishes. The petri dishes comprised MH agar with or without antibiotic.
(§2) The LED power during 0.02 ms was measured to be 0.63 W on a Thorlabs power sensor with a surface area of 2.2×2.2 mm representing a power of 13 mW/cm^2.

fibroblasts = type: cell-based
Procedure: In the second toxicity test fibroblasts were grown in RPMI cell culture medium medium with 10% fetal bovine serum and 1% of penicillin-streptomycin-fungizione (100×).
A: pulsed for 10 ms on and 90 ms of for 10 minutes or
B: pulsed for 5 ms on and 45 ms of for 10 minutes
C: no exposure to electromagnetic radiation
The result was obtained by counting viable cells for determination of the percentage of viable cells, with 100% viability being equal to the number of cells delivered to each well.

[2] = tested on: MU50 multi-drug resistant bacterial cells; assay: Experiment 2: moxifloxacin with UV-A on MU50 (CFU); type: cell-based, Staphylococcus aureus; settings: for control: CFU without UVA: no UVA
Description: This low concentration was chosen so as to detect threshold effects at the low edge of a just marginally effective concentration level of the antibiotic.

Acinetobacter [3] = type: cell-based; settings: remaining bacteria of experiment 12 proliferated and treated again
Procedure: as §1, §2
(§3) After the irradiation treatment according to experiment 12, remaining bacteria were allowed to proliferate and then were subject to the treatment according to experiment 12 again in order to test for possible new resistances to the treatment. The values in the following table are designated as in experiment 12: […]

[4] = tested on: Staphylococcus aureus MU500; type: cell-based; settings: remaining bacteria of experiment 12 proliferated and treated again
Procedure: as §1, §2, §3

Pseudomonas aeruginosa = assay: Experiment 12: replication on antibiotic agar after pulsed 400 nm irradiation; type: cell-based; settings: 24 hours incubation; for A: Pseudomonas aeruginosa (no irradiation), replication: antibiotic 10 mg/l in MH agar; for B: Pseudomonas aeruginosa (irradiation), replication: antibiotic 10 mg/l, 400 nm LED pulses 0.02 ms, 1 kHz, 10 minutes
Procedure: as §1
(§4) […]. The LED power during 0.02 ms was measured to be 0.63 W on a Thorlabs power sensor with a surface area of 2.2×2.2 mm representing a power of 13 mW/cm^2.

Acinetobacter [5] = assay: as above; type: cell-based; settings: 24 hours incubation; for C: Acinetobacter (no irradiation), replication: antibiotic 10 mg/l in MH agar; for D Acinetobacter (irradiation), replication: antibiotic 10 mg/l, 400 nm LED pulses 0.02 ms, 1 kHz, 10 minutes
Procedure: as §1, §4

[6] = tested on: MU50 multidrug-resistant Staphylococcus aureus strain (MRSA); assay: Minimum inhibitory concentration (MIC) on MU50; type: cell-based; settings: Staphylococcus aureus, MRSA; overnight incubation; read-out: MIC
Description: For some of the experimental tests MU50 bacteria were used. MU50 is a multidrug-resistant Staphylococcus aureus strain (MRSA). MRSA are bacteria which have naturally evolved under antibiotic selection pressure and which are known to be resistant to antibiotics including penicillins (methicillin, dicloxacillin, nafcillin, oxacillin, etc.) and cephalosporins. MU50 is additionally resistant to macrolides, quinolones and aminoglycosides.
The minimum inhibitory concentration (MIC), which inhibits the visible growth of a microorganism after an overnight incubation was determined for the following antibiotics: […]

Mice fibroblast = type: cell-based; settings: Tobramycin 75, Tetracycline 10, Ciprofloxacin 1 μg/ml; 30 min pre-incubation; no treatment, CXL 18 mW/cm2 5 min or laser 405 nm 1 min; 24 hours
Procedure: The number of colony forming units (CFU) was determined after 24 hours of incubation at 37° C.

[7] = tested on: chemotherapy resistant stage 4 (metastatic) small cells lung carcinoma cells; assay: Experiment 10: metabolic activity (CellTiter-Glo) of resistant neoplastic cells after photo-activated oncological drugs; settings: sample 4, Topotecan 0.07 μg/ml
[8] = sample 1A: moxifloxacin during UV 5 μg/ml, after UV 7.5 μg/ml for 2 hours, UV-A 365 nm 10 mW/cm^2 10 min
[9] = sample 1B: moxifloxacin during UV 5 μg/ml, after UV 2.5 μg/ml (NaCl added), UV-A 365 nm 10 mW/cm^2 10 min

SMILES | E: Staphylococcus aureus MU500 (no irradiation), replication [1] | F: Staphylococcus aureus MU500 (irradiation), replication [1] | D Acinetobacter (irradiation), replication, second treatment (Acinetobacter [3]) | C: Acinetobacter (no irradiation), replication, second treatment (Acinetobacter [3]) | F: Staphylococcus aureus MU500 (irradiation), replication, second treatment [4] | E: Staphylococcus aureus MU500 (no irradiation), replication, second treatment [4] | A: Pseudomonas aeruginosa (no irradiation), replication (Pseudomonas aeruginosa) | B: Pseudomonas aeruginosa (irradiation), replication (Pseudomonas aeruginosa) | C: Acinetobacter (no irradiation), replication (Acinetobacter [5]) | D Acinetobacter (irradiation), replication (Acinetobacter [5]) | further results
COc1c(N2C[C@@H]3CCCN[C@@H]3C2)c(F)cc2c(=O)c(C(=O)O)cn(C3CC3)c12 [Moxifloxacin] | R (Bacteria can replicate after the treatment) | NR (No replication) | NR (No replication) | R (Bacteria can replicate after the treatment) | PR (Bacteria can replicate partially) | R (Bacteria can replicate after the treatment) | R (Bacteria can replicate after the treatment) | NR (No replication) | R (Bacteria can replicate after the treatment) | NR (No replication) | Percentage of viable cells (fibroblasts; C: no exposure to electromagnetic radiation, antibiotic 3-10 μg/ml final): 85%; control: CFU without UVA ([2]; sample 1A: moxifloxacin during 5 μg/ml, after 7.5 μg/ml for 2 hours): 516 CFU; CFU with UVA [2, 8]: 3 CFU; CFU with UVA, percentage in brackets (survival rate) [2, 8]: 0%; control: CFU without UVA ([2]; sample 1B: moxifloxacin during 5 μg/ml, after 2.5 μg/ml (NaCl added)): 400 CFU; CFU with UVA [2, 9]: 119 CFU; CFU with UVA, percentage in brackets [2, 9]: 30%
CN(C)[C@@H]1C(O)=C(C(N)=O)C(=O)[C@@]2(O)C(O)=C3C(=O)c4c(O)cccc4[C@@](C)(O)C3CC12 (stereo partly shown) [Tetracycline] | R (Bacteria can replicate after the treatment) | NR (No replication) | NR (No replication) | R (Bacteria can replicate after the treatment) | NR (No replication) | R (Bacteria can replicate after the treatment) | R (Bacteria can replicate after the treatment) | NR (No replication) | R (Bacteria can replicate after the treatment) | NR (No replication) | Percentage of viable cells Normalized for the dead cell in NaCl group including light (fibroblasts; A: 405 nm pulsed 10 ms on, 90 ms off for 10 minutes): 52%; Percentage of viable cells Normalized for the dead cell in NaCl group including light (fibroblasts; B: 405 nm pulsed 5 ms on, 45 ms off for 10 minutes): 57%; MIC [6]: 32 µg/mL (≈ 72 µM); toxicity in term of necrosis and apoptosis (Mice fibroblast): No toxicity in term of necrosis and apoptosis
CC[C@@]1(O)C(=O)OCc2c1cc1n(c2=O)Cc2cc3c(CN(C)C)c(O)ccc3nc2-1 [Topotecan] |  |  |  |  |  |  |  |  |  |  | cell metabolic activity (luminescence, ATP) after normalization with the controls ([7]; A: pulse ON 10 ms, 0.1 J, OFF 90 ms, 10 minutes): 7%; cell metabolic activity (luminescence, ATP) after normalization with the controls ([7]; B: pulse ON 10 ms, 0.01-0.001 J, OFF 90 ms, 10 minutes): 52%; cell metabolic activity (luminescence, ATP) after normalization with the controls ([7]; C: control no pulse): 100%; cell metabolic activity (luminescence, ATP) after normalization with the controls ([7]; D: control no pulse): 100%; cell metabolic activity (luminescence, ATP) after normalization with the controls ([7]; E: pulse ON 10 ms, 0.01-0.001 J, OFF 90 ms, 5 minutes): 47%; cell metabolic activity (luminescence, ATP) after normalization with the controls ([7]; F: pulse ON 10 ms, 0.1 J, OFF 90 ms, 5 minutes): 5%
